Here are results for 40 molecules from patent US12240840B2, “Amide-substituted heterocyclic compounds for the treatment of conditions related to the modulation of IL-12, IL-23 and/or IFN-alpha” (BRISTOL-MYERS SQUIBB COMPANY, priority 2018, dated 2025).

The assay concerns IFNα-induced pSTAT5 (pY694) in CD3 positive cells of human whole blood. As to the kind of experiment: IFNα-Induced STAT Phosphorylation in Human Whole Blood. The note with it: Homo sapiens, 1 h compound incubation, 1000 U/mL recombinant human IFNα A/D for 15 min, pSTAT5 in CD3 positive population, read-out: Human WB IFNα-Induced Stat Phosph. (IC50). The assay is classed as cell-based. The protocol:
IFNα-Induced STAT Phosphorylation in Human Whole Blood
After an hour long incubation with compound, human whole blood (drawn with either EDTA or ACD-A as anti-coagulant) was stimulated with 1000 U/mL recombinant human IFNα A/D (R&D Systems 11200-2) for 15 min. The stimulation was stopped by adding Fix/Lyse buffer (BD 558049). Cells were stained with a CD3 FITC antibody (BD 555916), washed, and permeabilized on ice using Perm III buffer (BD 558050). Cells were then stained with an Alexa-Fluor 647 pSTAT5 (pY694) antibody (BD 612599) for 30 min prior to analysis on the FACS Canto II. The amount of pSTAT5 expression was quantitated by median fluorescence intensity after gating on the CD3 positive population.
IFNα-Induced STAT Phosphorylation in Human Whole Blood Inhibition Data ND—no data available
For the molecule `[2H]C([2H])([2H])NC(=O)c1nnc(NC(=O)C2CC2)cc1Nc1cccc(-c2cc(C(=O)NC3CCC(N(C)C)CC3)n(C)n2)c1OC` (stereo not shown) [Example 534], the IC50 is 470 nM.
The result for `COc1c(Nc2cc(NC(=O)C3CC3)nnc2C(N)=O)cccc1-c1noc([C@@H]2C[C@@H](O)CN2S(C)(=O)=O)n1` [Example 11] reads 21 nM; that for `[2H]C([2H])([2H])NC(=O)c1nnc(NC(=O)C2CC2)cc1Nc1cccc(-c2ncc(C(=O)N3CCC(CCO)CC3)s2)c1OC` [Example 297], 30 nM.
The result for `COc1c(Nc2cc(NC(=O)C3CC3)nnc2C(N)=O)cccc1-c1ncc(CN2CCN(S(C)(=O)=O)CC2)s1` [Example 395] reads 80 nM; that for `[2H]C([2H])([2H])NC(=O)c1nnc(NC(=O)C2CC2)cc1Nc1cccc(-c2ncc(C(=O)NCCN3CCCC(C)C3)s2)c1OC` (stereo not shown) [Example 324], 60 nM; that for `[2H]C([2H])([2H])NC(=O)c1nnc(NC(=O)C2CC2)cc1Nc1cccc(-c2noc(C(CCC)C(=O)NCCOC)n2)c1OC` (stereo not shown) [Example 43], 170 nM.
As for `COc1c(Nc2cc(N)nnc2C(N)=O)cccc1-c1noc(C(=O)NCCC2CCCN2C)n1` (stereo not shown) [Example 115], the figure is 3490 nM; as for `[2H]C([2H])([2H])NC(=O)c1nnc(NC(=O)C2CC2)cc1Nc1cccc(-c2ccn(CCNC(=O)OC(C)(C)C)n2)c1OC` [Example 464], 1110 nM.
Turning to `[2H]C([2H])([2H])NC(=O)c1nnc(NC(=O)C2CC2)cc1Nc1cc(F)cc(-c2ncc(C(=O)N(C)C)s2)c1OC` [Example 277], the IC50 stood at 240 nM.
The result for `[2H]C([2H])([2H])NC(=O)c1nnc(NC(=O)C2CC2)cc1Nc1cccc(-c2nc(CN3CCN(C)CC3)no2)c1OC` [Example 180] reads 200 nM.
As to `[2H]C([2H])([2H])NC(=O)c1nnc(NC(=O)C2CC2)cc1Nc1cccc(-c2cn(CCN3CCOCC3)nn2)c1OC` [Example 422, 6-(cyclopropanecarboxamido)-4-((2-methoxy-3-(1-(2-morpholinoethyl)-1H-1,2,3-triazol-4-yl)phenyl)amino)-N-(methyl-d3)pyridazine-3-carboxamide], the IC50 was found to be 590 nM.
For `COc1c(Nc2cc(NC(=O)C3CC3)nnc2C(N)=O)cccc1-c1ncc(CC(=O)N2CCOCC2)s1` [Example 244], the 50% inhibitory concentration (IC50) stood at 120 nM.
The result for `[2H]C([2H])([2H])NC(=O)c1nnc(NC(=O)C2CC2)cc1Nc1cccc(-c2noc([C@@H]3C[C@@H](O)CN3S(C)(=O)=O)n2)c1OC` [Example 75] reads 30 nM.
For the molecule `[2H]C([2H])([2H])NC(=O)c1nnc(NC(=O)C2CC2)cc1Nc1cccc(-c2nc(COCc3ccccc3)no2)c1OC` [Example 144], the IC50 amounted to 1000 nM.
As for `COCc1nc(-c2cccc(Nc3cc(NC(=O)C4CC4)nnc3C(N)=O)c2OC)no1` [Example 67], the figure is 60 nM.
Regarding `[2H]C([2H])([2H])NC(=O)c1nnc(NC(=O)C2CC2)cc1Nc1cccc(-c2nc([C@H](COC(C)(C)C)NC(=O)OC(C)(C)C)no2)c1OC` [Example 197], the IC50 was 6200 nM.
Regarding `[2H]C([2H])([2H])NC(=O)c1nnc(Nc2cc(C)n(C)n2)cc1Nc1cc(F)cc(-c2cc(C(C)(C)O)n(C)n2)c1OC` [Example 546], the IC50 is 110 nM.
`[2H]C([2H])([2H])NC(=O)c1nnc(NC(=O)C2CC2)cc1Nc1cc(F)cc(-c2cc(C(=O)N3CC4CN(C)CC4C3)n(C)n2)c1OC` (stereo not shown) [Example 496]: the IC50 amounted to 250 nM.
The result for `COc1c(Nc2cc(NC(=O)C3CC3)nnc2C(N)=O)cccc1-c1noc(CN(C)S(C)(=O)=O)n1` [Example 44] reads 9 nM.
As for `[2H]C([2H])([2H])NC(=O)c1nnc(NC(=O)C2CC2)cc1Nc1cccc(-c2cc(C(=O)N3CCN(C(C)=O)CC3)n(C)n2)c1OC` [Example 493], the figure is 40 nM; as for `[2H]C([2H])([2H])NC(=O)c1nnc(NC(=O)C2CC2)cc1Nc1cccc(-c2nc(C3(NC(C)=O)CC3)no2)c1OC` [Example 165], 530 nM; as for `COc1c(Nc2cc(NC(=O)C3CC3)nnc2C(N)=O)cccc1-c1noc([C@H](C)NS(C)(=O)=O)n1` [Example 46], 140 nM.
`[2H]C([2H])([2H])NC(=O)c1cnc(NC(=O)C2CC2)cc1Nc1cccc(-c2nc(C3(NC(C)=O)CC3)no2)c1OC` [Example 214]: the IC50 was found to be 390 nM.
As for `COC(=O)N1CCN(Cc2nc(-c3cccc(Nc4cc(N)nnc4C(N)=O)c3OC)no2)CC1` [Example 105], the IC50 stood at 1830 nM.
`[2H]C([2H])([2H])NC(=O)c1nnc(NC(=O)C2CC2)cc1Nc1cccc(-c2ncc(CO)s2)c1OC` [Example 257]: the IC50 was 230 nM.
Regarding `[2H]C([2H])([2H])NC(=O)c1nnc(Nc2ccc(C)nn2)cc1Nc1cccc(-c2nc(CN3CCOCC3)no2)c1OC` [Example 237], the IC50 turned out to be 70 nM.
With `[2H]C([2H])([2H])NC(=O)c1nnc(NC(=O)C2CC2)cc1Nc1cccc(-c2ncc(C(=O)NCCNC(=O)CC)s2)c1OC` [Example 240], the half-maximal inhibitory concentration (IC50) was 180 nM.
With `CCN(Cc1nc(-c2cccc(Nc3cc(NC(=O)C4CC4)nnc3C(N)=O)c2OC)no1)S(C)(=O)=O` [Example 59], the IC50 is 13 nM.
The result for `[2H]C([2H])([2H])NC(=O)c1nnc(NC(=O)C2CC2)cc1Nc1cccc(-c2nc(C)c(C(=O)N3CCC(N(C)C)CC3)s2)c1OC` [Example 354] reads 80 nM; that for `[2H]C([2H])([2H])NC(=O)c1nnc(NC(=O)C2CC2)cc1Nc1cccc(-c2cnn(CCNC(=O)CO)c2)c1OC` [Example 558], 1300 nM.
As for `[2H]C([2H])([2H])NC(=O)c1cnc(NC(=O)C2CC2)cc1Nc1cccc(-c2cc(C(=O)N3CCS(=O)(=O)CC3)n(C)n2)c1OC` [Example 488], the figure is 530 nM.
As for `[2H]C([2H])([2H])NC(=O)c1nnc(NC(=O)C2CC2)cc1Nc1cccc(-c2nc(CN3CCN(C(=O)NCC)CC3)no2)c1OC` [Example 136], the figure is 1130 nM.
Turning to `[2H]C([2H])([2H])NC(=O)c1cnc(Nc2ccc(OC)nn2)cc1Nc1cc(F)cc(-c2cc(C(=O)N(C)C)n(C)n2)c1OC` [Example 551], the IC50 came out at 50 nM.
Regarding `[2H]C([2H])([2H])NC(=O)c1nnc(NC(=O)C2CC2)cc1Nc1cccc(-c2nc(CC(=O)NCCOC)no2)c1OC` [Example 176], the IC50 was 450 nM.
Regarding `[2H]C([2H])([2H])NC(=O)c1nnc(NC(=O)C2CC2)cc1Nc1cccc(-c2cnn(CC(=O)NCCO)n2)c1OC` [Example 429], the IC50 came to 190 nM.
As for `[2H]C([2H])([2H])NC(=O)c1nnc(NC(=O)C2CC2)cc1Nc1cccc(-c2ncc(C(=O)NCCNC(C)=O)s2)c1OC` [Example 304], the figure is 130 nM.
In the case of `[2H]C([2H])([2H])NC(=O)c1nnc(NC(=O)C2CC2)cc1Nc1cccc(-c2nc(CN(C)C(=O)COC)no2)c1OC` [Example 170], the IC50 was 570 nM.
As to `[2H]C([2H])([2H])NC(=O)c1nnc(NC(=O)C2CC2)cc1Nc1cccc(-c2noc(C3CCCO3)n2)c1OC` (stereo not shown) [Example 81], the IC50 was determined as 180 nM.
The result for `[2H]C([2H])([2H])NC(=O)c1nnc(Nc2cc(C(C)(C)O)ccn2)cc1Nc1cccc(-c2cn(CCN3CCOCC3)nn2)c1OC` [Example 425] reads 670 nM; that for `[2H]C([2H])([2H])NC(=O)c1nnc(NC(=O)C2CC2)cc1Nc1cc(F)cc(-c2cc(C(=O)NCCCCC)n(C)n2)c1OC` [Example 513], > 10000 nM.

The IC50 is the concentration at which inhibition is half-maximal.
